{"source": "patent US20240398790A1", "about": "(ABBVIE INC., priority 2021, published 2024)", "molecules": {"B1": {"name": "sarilumab: IL-6 inhibitor (antibody, chains of the INN, looked up, V domains shown)", "VH": "EVQLVESGGGLVQPGRSLRLSCAASRFTFDDYAMHWVRQAPGKGLEWVSGISWNSGRIGYADSVKGRFTISRDNAENSLFLQMNGLRAEDTALYYCAKGRDSFDIWGQGTMVTVSS", "VL": "DIQMTQSPSSVSASVGDRVTITCRASQGISSWLAWYQQKPGKAPKLLIYGASSLESGVPSRFSGSGSGTDFTLTISSLQPEDFASYYCQQANSFPYTFGQGTKLEIK"}}, "key": {"[1]": {"system": "adult subjects with active ankylosing spondylitis (AS) who had an inadequate response to biologic disease-modifying anti-rheumatic drug therapy (bDMARD-IR)", "experiment": "SELECT AXIS 2 Study 1, safety up to Week 14"}, "[2]": {"system": "adult subjects with active ankylosing spondylitis (AS) who had an inadequate response to biologic disease-modifying anti-rheumatic drug therapy (bDMARD-IR)", "settings": "human, in vivo"}, "[3]": {"system": "bDMARD-naïve patients with AS who had an inadequate response to non-steroidal anti-inflammatory drugs (NSAIDs)", "settings": "cited from earlier work"}, "[4]": {"system": "adult subjects with active ankylosing spondylitis (AS) who had an inadequate response to biologic disease-modifying anti-rheumatic drug therapy (bDMARD-IR)", "experiment": "SELECT AXIS 2 Study 1, Phase 3 placebo-controlled, efficacy at Week 14", "type": "in vivo, human"}, "[5]": {"system": "AS", "settings": "literature; cited from earlier work"}, "[6]": {"settings": "AESI up to Week 14, N = 211, listed as Upadacitinib"}, "[7]": {"settings": "AESI up to Week 14, N = 211, listed as upadacitinib freebase"}, "[8]": {"settings": "CTCAE V4, Double-Blind Period (Week 14)"}, "[9]": {"settings": "up to Week 14, N = 211, listed as RINVOQ"}}}
{"molecule": "CC[C@@H]1CN(C(=O)NCC(F)(F)F)C[C@@H]1c1cnc2cnc3[nH]ccc3n12", "note": "[upadacitinib, (3S,4R)-3-ethyl-4-(3H-imidazo[1,2-a]pyrrolo[2,3-e]pyrazin-8-yl)-N-(2,2,2-trifluoroethyl)pyrrolidine-1-carboxamide]", "values": [{"measurement": "Adverse event (AE), %", "setting": "[1]; 15 mg QD, up to Week 14, N = 211", "value": "(40.8) %"}, {"measurement": "Serious infections, proportion of patients", "setting": "[1]; 15 mg, through week 14", "value": 2.4, "unit": "%"}, {"measurement": "herpes zoster, proportion of patients", "setting": "[1]; 15 mg, through week 14", "value": 0.9, "unit": "%"}, {"measurement": "Active tuberculosis", "setting": "[1]; AESI up to Week 14, N = 211", "value": "0 (0.0) n (%)"}, {"measurement": "Anemia", "setting": "[1]; AESI up to Week 14, N = 211", "value": "3 (1.4) n (%)"}, {"measurement": "Hepatic disorder", "setting": "[1]; AESI up to Week 14, N = 211", "value": "6 (2.8) n (%)"}, {"measurement": "Herpes zoster", "setting": "[1]; AESI up to Week 14, N = 211", "value": "2 (0.9) n (%)"}, {"measurement": "Infection", "setting": "[1]; AESI up to Week 14, N = 211", "value": "31 (14.7) n (%)"}, {"measurement": "Lymphoma", "setting": "[1]; AESI up to Week 14, N = 211", "value": "0 (0.0) n (%)"}, {"measurement": "Lymphopenia", "setting": "[1]; AESI up to Week 14, N = 211", "value": "1 (0.5) n (%)"}, {"measurement": "Malignancy", "setting": "[1]; AESI up to Week 14, N = 211", "value": "No malignancy"}, {"measurement": "Malignancy other than NMSC", "setting": "[1]; AESI up to Week 14, N = 211", "value": "0 (0.0) n (%)"}, {"measurement": "Neutropenia", "setting": "[1]; AESI up to Week 14, N = 211", "value": "6 (2.8) n (%)"}, {"measurement": "Non-melanoma skin cancer (NMSC)", "setting": "[1]; AESI up to Week 14, N = 211", "value": "0 (0.0) n (%)"}, {"measurement": "Renal dysfunction", "setting": "[1]; AESI up to Week 14, N = 211", "value": "0 (0.0) n (%)"}, {"measurement": "Serious infection", "setting": "[1]; AESI up to Week 14, N = 211", "value": "5 (2.4) n (%)"}, {"measurement": "Adjudicated MACE", "setting": "[1]; [6]", "value": "0 (0.0) n (%)"}, {"measurement": "Adjudicated gastrointestinal perforation", "setting": "[1]; [6]", "value": "0 (0.0) n (%)"}, {"measurement": "Adjudicated venous thromboembolic events", "setting": "[1]; [6]", "value": "0 (0.0) n (%)"}, {"measurement": "Malignancy", "setting": "[1]; [6]", "value": "0 (0.0) n (%)"}, {"measurement": "Adjudicated MACE", "setting": "[1]; [7]", "value": "no events"}, {"measurement": "Adjudicated gastrointestinal perforation", "setting": "[1]; [7]", "value": "no events"}, {"measurement": "Adjudicated venous thromboembolic events", "setting": "[1]; [7]", "value": "no events"}, {"measurement": "Malignancy", "setting": "[1]; [7]", "value": "no events"}, {"measurement": "ALT (U/L) Grade 4 (>20.0 xULN)", "setting": "[1]; [8]", "value": "0/211"}, {"measurement": "AST (U/L) Grade 4 (>20.0 xULN)", "setting": "[1]; [8]", "value": "0/211"}, {"measurement": "Creatinine (umol/L) Grade 3 (>3.0-6.0 xULN or >3.0 xBaseline)", "setting": "[1]; [8]", "value": "0/211"}, {"measurement": "Creatinine (umol/L) Grade 4 (>6.0 xULN)", "setting": "[1]; [8]", "value": "0/211"}, {"measurement": "Hemoglobin (g/L) Grade 3 (<80)", "setting": "[1]; [8]", "value": "0/211"}, {"measurement": "Lymphocytes (10^9/L) Grade 4 (<0.2)", "setting": "[1]; [8]", "value": "0/211"}, {"measurement": "Neutrophils (10^9/L) Grade 4 (<0.5)", "setting": "[1]; [8]", "value": "0/211"}, {"measurement": "safety profile", "setting": "[1]; Phase 3 AS bDMARD-IR study", "value": "no new risks were identified"}, {"measurement": "AE with reasonable possibility of being related to study treatment, %", "setting": "[1]; as assessed by investigator, up to Week 14, N = 211", "value": "(17.1) %"}, {"measurement": "hepatic disorders reported, nature", "setting": "[1]; up to Week 14", "value": "mild or moderate transaminase elevations"}, {"measurement": "AE leading to death, %", "setting": "[1]; up to Week 14, N = 211", "value": "(0.0) %"}, {"measurement": "AE leading to withdrawal of study treatment, %", "setting": "[1]; up to Week 14, N = 211", "value": "(0.0) %"}, {"measurement": "All deaths, %", "setting": "[1]; up to Week 14, N = 211", "value": "(0.0) %"}, {"measurement": "Serious AE, %", "setting": "[1]; up to Week 14, N = 211", "value": "(2.8) %"}, {"measurement": "Severe AE, %", "setting": "[1]; up to Week 14, N = 211", "value": "(3.3) %"}, {"measurement": "AE leading to withdrawal of study treatment, %", "setting": "[1]; [9]", "value": 0, "unit": "%"}, {"measurement": "Serious AE, %", "setting": "[1]; [9]", "value": 2.8, "unit": "%"}, {"measurement": "Opportunistic infection excluding tuberculosis and herpes zoster", "setting": "[2]", "value": "0 (0.0) n (%)"}, {"measurement": "COVID-19 related AE, %", "setting": "[2]; 14 weeks", "value": "(5.7) %"}, {"measurement": "ASAS40 response at Week 14 (primary endpoint) versus placebo", "setting": "[3]; SELECT-AXIS 1, Week 14", "value": "significantly greater achievement"}, {"measurement": "efficacy once achieved at Week 14, over time", "setting": "[3]; SELECT-AXIS 1, up to and including Week 64", "value": "sustained or improved over time"}, {"measurement": "AS QoL, UPA-PBO", "setting": "[4]", "value": "−3.07"}, {"measurement": "ASDAS(CRP) Low Disease Activity, UPA-PBO", "setting": "[4]", "value": 34.0}, {"measurement": "ASDAS(CRP), UPA-PBO", "setting": "[4]", "value": "−1.02"}, {"measurement": "BASFI (Function), UPA-PBO", "setting": "[4]", "value": "−1.17"}, {"measurement": "BASMI (Mobility), UPA-PBO", "setting": "[4]", "value": "−0.32"}, {"measurement": "MASES (Enthesitis)", "setting": "[4]", "value": "−2.6"}, {"measurement": "MASES (Enthesitis), UPA-PBO", "setting": "[4]", "value": "−1.5"}, {"measurement": "MRI Spine SPARCC, UPA-PBO", "setting": "[4]", "value": "−3.90"}, {"measurement": "Nocturnal Back Pain, UPA-PBO", "setting": "[4]", "value": "−1.7"}, {"measurement": "Total Back Pain, UPA-PBO", "setting": "[4]", "value": "−1.53"}, {"measurement": "AS QoL", "setting": "[4]; 15 mg", "value": "−5.10"}, {"measurement": "ASDAS(CRP)", "setting": "[4]; 15 mg", "value": "−1.52"}, {"measurement": "BASFI (Function)", "setting": "[4]; 15 mg", "value": "−2.26"}, {"measurement": "BASMI (Mobility)", "setting": "[4]; 15 mg", "value": "−0.48"}, {"measurement": "MRI Spine SPARCC", "setting": "[4]; 15 mg", "value": "−3.95"}, {"measurement": "Nocturnal Back Pain", "setting": "[4]; 15 mg", "value": "−3.2"}, {"measurement": "Total Back Pain", "setting": "[4]; 15 mg", "value": "−3.00"}, {"measurement": "onset of effect in ASAS40", "setting": "[4]; 15 mg", "value": 4, "unit": "Week"}, {"measurement": "ASDAS(CRP) Low Disease Activity", "setting": "[4]; 15 mg QD, Week 14, NRI-MI", "value": 44.1, "unit": "%"}]}
{"molecule": "tocilizumab: IL-6 inhibitor", "values": [{"measurement": "efficacy achieved in AS", "setting": "[5]", "value": "low efficacy"}]}
{"molecule": "ustekinumab: IL-12/23 inhibitor", "values": [{"measurement": "efficacy achieved in AS", "setting": "[5]", "value": "low efficacy"}]}
{"molecule": "B1", "values": [{"measurement": "efficacy achieved in AS", "setting": "[5]", "value": "low efficacy"}]}
